Laboratory results: patent US20210238192A1, “VASCULAR ADHESION PROTEIN-1 (VAP-1) MODULATORS AND THERAPEUTIC USES THEREOF” (Blade Therapeutics, Inc., priority 2018, published 2021)
Structures can show the parent of a compound that is named as a salt. Each block holds one compound with its values, some of them ahead of it.

Key:
Assay type in all cases: biochemical
Human VAP-1 = target: T1, Human VAP-1 (Homo sapiens, UniProt Q16853); assay: VAP-1 inhibition assay (Amplex Red continuous fluorescence assay); conditions: 30 min pre-incubation at 37° C.; substrate benzylamine; read-out: Human VAP-1 IC50
T1 sequence (Q16853 1-763): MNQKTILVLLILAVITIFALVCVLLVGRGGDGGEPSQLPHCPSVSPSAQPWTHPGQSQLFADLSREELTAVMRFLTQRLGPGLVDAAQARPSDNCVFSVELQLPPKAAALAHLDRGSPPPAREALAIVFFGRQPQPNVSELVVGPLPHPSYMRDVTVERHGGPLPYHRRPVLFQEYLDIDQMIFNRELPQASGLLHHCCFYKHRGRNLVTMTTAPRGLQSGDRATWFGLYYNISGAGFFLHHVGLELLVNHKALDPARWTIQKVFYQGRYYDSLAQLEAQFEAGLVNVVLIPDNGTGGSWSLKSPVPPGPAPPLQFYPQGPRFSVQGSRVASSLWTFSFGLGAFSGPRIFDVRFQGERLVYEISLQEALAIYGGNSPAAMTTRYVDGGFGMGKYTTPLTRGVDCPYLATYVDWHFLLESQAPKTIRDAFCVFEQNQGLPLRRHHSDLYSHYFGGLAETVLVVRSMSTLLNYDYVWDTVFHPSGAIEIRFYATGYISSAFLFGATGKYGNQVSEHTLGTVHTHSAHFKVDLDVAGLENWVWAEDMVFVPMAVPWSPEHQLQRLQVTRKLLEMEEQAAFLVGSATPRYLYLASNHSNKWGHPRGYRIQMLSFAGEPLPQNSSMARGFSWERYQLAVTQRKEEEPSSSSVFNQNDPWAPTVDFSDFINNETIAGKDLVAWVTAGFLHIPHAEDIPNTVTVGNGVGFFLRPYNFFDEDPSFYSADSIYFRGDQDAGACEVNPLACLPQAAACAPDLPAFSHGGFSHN
Protocol: (§1) VAP-1, DAO, MAO-A, MAO-B, and HRP activity and inhibition thereof was assessed by means of a continuous fluorescence assay. The Amplex Red Hydrogen Peroxide/Peroxidase Assay (ThermoFisher) was optimized for detecting amine oxidase (AO) activity. In an enzyme-coupled reaction, the H2O2 generated by AO reacts 1:1 with Amplex Red reagent to produce fluorescent product resorufin.
(§2) Assays were typically setup in black 384-well plates using automated liquid handling as follows. VAP-1/MAO assay buffer contains […] sodium phosphate, pH 7.4; DAO assay buffer contains 50 mM HEPES, pH 7.5; HRP assay buffer contains 100 mM CHES, 1 mM MgCl2, 50 mM NaCl, 0.05% BSA, pH 9.0. Inhibitors were serially diluted in DMSO and used to setup 2× mixtures with AO in the aforementioned buffer. After 30 min pre-incubation at 37° C. (VAP-1, HRP) or room temp (DAO, MAO), the reaction was initiated by adding a 2× mix of Amplex Red, HRP (coupling enzyme), and substrate (benzylamine, histamine, tyramine, benzylamine, H2O2, for VAP-1, DAO, MAO-A, MAO-B, and HR, respectively) in the same buffer. Reaction progress curve data were typically collected for 5 min using excitation/emission wavelengths of 510 nm/565 nm on FLIPR-Tetra plate readers (Molecular Devices Inc). Reaction rates were calculated from progress curve slopes typically over 60-150 sec. Dose response curves (rate vs. log inhibitor concentration) were typically fit to a 4-parameter logistic function to extract IC50 values.

Human DAO = target: T2, Human DAO (Homo sapiens, UniProt P19801); assay: DAO inhibition (Amplex Red continuous fluorescence assay); conditions: 30 min pre-incubation at room temp; substrate histamine; read-out: Human DAO IC50
T2 sequence (P19801 20-751): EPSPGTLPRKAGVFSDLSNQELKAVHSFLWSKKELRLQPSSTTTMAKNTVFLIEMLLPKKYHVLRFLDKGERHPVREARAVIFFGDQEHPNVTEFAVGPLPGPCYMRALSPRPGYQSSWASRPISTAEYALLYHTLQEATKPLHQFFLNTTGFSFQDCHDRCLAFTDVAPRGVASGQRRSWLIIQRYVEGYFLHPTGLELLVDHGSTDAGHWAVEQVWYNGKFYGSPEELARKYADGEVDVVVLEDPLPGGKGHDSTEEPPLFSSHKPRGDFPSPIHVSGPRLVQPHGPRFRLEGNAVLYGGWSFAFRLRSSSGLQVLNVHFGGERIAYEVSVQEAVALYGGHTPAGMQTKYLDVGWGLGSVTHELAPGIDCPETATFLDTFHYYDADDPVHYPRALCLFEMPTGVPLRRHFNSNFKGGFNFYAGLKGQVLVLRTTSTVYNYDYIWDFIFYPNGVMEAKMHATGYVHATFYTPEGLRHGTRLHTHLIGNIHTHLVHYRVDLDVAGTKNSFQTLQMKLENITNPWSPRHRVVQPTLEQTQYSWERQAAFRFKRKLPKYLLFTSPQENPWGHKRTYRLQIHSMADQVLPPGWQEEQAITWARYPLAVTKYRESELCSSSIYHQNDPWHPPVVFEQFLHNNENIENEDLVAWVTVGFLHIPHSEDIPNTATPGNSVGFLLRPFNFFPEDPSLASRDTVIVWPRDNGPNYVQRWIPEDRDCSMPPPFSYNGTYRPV
Protocol: as §1, §2

Human MAO-B = target: T3, Human MAO-B (Homo sapiens, UniProt P27338); assay: MAO-B inhibition (Amplex Red continuous fluorescence assay); conditions: 30 min pre-incubation at room temp; substrate benzylamine; read-out: Human MAO-B IC50
T3 sequence (P27338 1-520): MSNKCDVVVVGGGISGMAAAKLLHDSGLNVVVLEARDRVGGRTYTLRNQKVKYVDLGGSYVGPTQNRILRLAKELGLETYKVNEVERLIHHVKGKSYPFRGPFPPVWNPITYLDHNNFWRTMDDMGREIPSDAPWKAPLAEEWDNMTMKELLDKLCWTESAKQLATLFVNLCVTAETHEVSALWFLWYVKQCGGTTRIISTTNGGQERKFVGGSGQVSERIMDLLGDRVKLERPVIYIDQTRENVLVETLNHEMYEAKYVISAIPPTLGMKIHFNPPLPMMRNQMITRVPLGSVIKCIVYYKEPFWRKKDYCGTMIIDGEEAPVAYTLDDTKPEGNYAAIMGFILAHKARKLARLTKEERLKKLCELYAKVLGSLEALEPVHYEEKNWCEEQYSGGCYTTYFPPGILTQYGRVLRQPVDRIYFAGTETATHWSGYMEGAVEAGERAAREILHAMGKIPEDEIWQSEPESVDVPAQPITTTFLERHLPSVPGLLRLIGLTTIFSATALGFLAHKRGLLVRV
Protocol: as §1, §2

Human MAO-A = target: T4, Human MAO-A (Homo sapiens, UniProt P21397); assay: MAO-A inhibition (Amplex Red continuous fluorescence assay); conditions: 30 min pre-incubation at room temp; substrate tyramine; read-out: Human MAO-A IC50
T4 sequence (P21397 1-527): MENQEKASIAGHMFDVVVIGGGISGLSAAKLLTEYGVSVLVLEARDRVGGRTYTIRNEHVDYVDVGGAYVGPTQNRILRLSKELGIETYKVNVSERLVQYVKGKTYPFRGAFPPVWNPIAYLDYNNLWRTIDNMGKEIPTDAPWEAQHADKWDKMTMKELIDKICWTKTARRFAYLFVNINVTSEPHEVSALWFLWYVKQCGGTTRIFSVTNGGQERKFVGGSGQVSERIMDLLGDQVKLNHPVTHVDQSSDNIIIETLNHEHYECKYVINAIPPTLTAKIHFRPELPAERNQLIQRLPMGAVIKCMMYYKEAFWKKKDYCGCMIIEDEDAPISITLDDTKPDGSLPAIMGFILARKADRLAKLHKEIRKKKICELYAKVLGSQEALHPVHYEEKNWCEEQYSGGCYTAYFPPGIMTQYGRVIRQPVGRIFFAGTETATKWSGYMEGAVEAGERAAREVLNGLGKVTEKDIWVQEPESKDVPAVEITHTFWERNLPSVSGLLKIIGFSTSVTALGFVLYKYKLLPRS
Protocol: as §1, §2

IC50 (Human VAP-1): < 3 µM
IC50 (Human DAO): 3 to 10 µM
IC50 (Human MAO-B): < 3 µM
IC50 (Human MAO-A): < 3 µM
SMILES: CC(C)NC(=O)Nc1ccc(OC/C(=C/F)CN)cc1 [Compound 18, (E)-1-(4-((2-(aminomethyl)-3-fluoroalkyl)oxy)phenyl)-3-isopropylurea hydrochloride]

IC50 (Human VAP-1): < 3 µM
IC50 (Human DAO): > 10 µM
IC50 (Human MAO-B): < 3 µM
IC50 (Human MAO-A): 3 to 10 µM
SMILES: CCN(CC)C(=O)Nc1ccc(OC/C(=C/F)CN)cc1 [Compound 24, (E)-3-(4-((2-(aminomethyl)-3-fluoroalkyl)oxy)phenyl)-1,1-diethylurea hydrochloride]

IC50 (Human VAP-1): < 3 µM
IC50 (Human DAO): < 3 µM
IC50 (Human MAO-B): < 3 µM
IC50 (Human MAO-A): < 3 µM
SMILES: Cn1nccc1-c1ccc(OC/C(=C\F)CN)cc1 [Compound 49, (Z)-3-fluoro-2-((4-(1-methyl-1H-pyrazol-5-yl)phenoxy)methyl)prop-2-en-1-amine hydrochloride]

IC50 (Human VAP-1): < 3 µM
IC50 (Human DAO): < 3 µM
IC50 (Human MAO-B): < 3 µM
IC50 (Human MAO-A): > 10 µM
SMILES: Cn1ccnc1-c1ccc(OC/C(=C\F)CN)cc1 [Compound 28, hydrochloride]

IC50 (Human VAP-1): < 3 µM
IC50 (Human DAO): < 3 µM
IC50 (Human MAO-B): > 10 µM
IC50 (Human MAO-A): > 10 µM
SMILES: NC/C(=C\F)COc1ccc(C2=NCCN2)cc1 [Compound 61, (E)-2-((4-(4,5-dihydro-1H-imidazol-2-yl)phenoxy)methyl)-3-fluoroprop-2-en-1-amine]

IC50 (Human VAP-1): < 3 µM
IC50 (Human DAO): 3 to 10 µM
IC50 (Human MAO-B): < 3 µM
IC50 (Human MAO-A): 3 to 10 µM
SMILES: CCNC(=O)Nc1ccc(OC/C(=C/F)CN)cc1 [Compound 7, (E)-1-(4-((2-(aminomethyl)-3-fluoroalkyl)oxy)phenyl)-3-ethylurea hydrochloride]

IC50 (Human VAP-1): < 3 µM
IC50 (Human DAO): < 3 µM
IC50 (Human MAO-B): 3 to 10 µM
IC50 (Human MAO-A): 3 to 10 µM
SMILES: NC/C(=C\F)COC(=O)Nc1ccccc1 [Compound 65, (E)-2-(aminomethyl)-3-fluoroalkyl phenylcarbamate]

IC50 (Human VAP-1): < 3 µM
IC50 (Human DAO): < 3 µM
IC50 (Human MAO-B): < 3 µM
IC50 (Human MAO-A): < 3 µM
SMILES: NC/C(=C/F)COc1ccc(-c2ncon2)cc1 [Compound 44, (Z)-2-((4-(1,2,4-OXADIAZOL-3-YL)PHENOXY)METHYL)-3-FLUOROPROP-2-EN-1-AMINE HYDROCHLORIDE]

Further lines, the compound ahead of its results:

SMILES: NC/C(=C\F)COc1ccc(-c2ncccn2)cc1 [Compound 37, (E)-3-fluoro-2-((4-(pyrimidin-2-yl)phenoxy)methyl)prop-2-en-1-amine hydrochloride]
IC50 (Human VAP-1): < 3 µM
IC50 (Human DAO): < 3 µM
IC50 (Human MAO-B): < 3 µM
IC50 (Human MAO-A): 3 to 10 µM

SMILES: NC/C(=C\F)Cn1ccc2ccccc21 [Compound 15, (E)-2-((1H-indol-1-yl)methyl)-3-fluoroprop-2-en-1-amine hydrochloride]
IC50 (Human VAP-1): < 3 µM
IC50 (Human DAO): > 10 µM
IC50 (Human MAO-B): < 3 µM
IC50 (Human MAO-A): < 3 µM

SMILES: NC/C(=C\F)CNC(=O)Nc1ccccc1 [Compound 71]
IC50 (Human VAP-1): < 3 µM
IC50 (Human DAO): 3 to 10 µM
IC50 (Human MAO-B): > 10 µM
IC50 (Human MAO-A): < 3 µM

SMILES: NC/C(=C\F)CNc1ccccc1 [Compound 3, (E)-2-(fluoromethylene)-N^1-phenylpropane-1,3-diamine hydrochloride]
IC50 (Human VAP-1): < 3 µM
IC50 (Human DAO): > 10 µM
IC50 (Human MAO-B): < 3 µM
IC50 (Human MAO-A): > 10 µM

SMILES: NC/C(=C/F)COc1cnc(N2CC[C@H](O)C2)nc1 [Compound 80]
IC50 (Human VAP-1): < 3 µM
IC50 (Human DAO): < 3 µM
IC50 (Human MAO-B): > 10 µM
IC50 (Human MAO-A): > 10 µM

SMILES: NC/C(=C\F)COc1ccc(C(=O)NCCOCCOCCOCCOCCOCCOCCOCCOCCOCCOCCOCCNC(=O)CCCCC2SCC3NC(=O)NC32)cc1 (stereo not drawn) [Compound 78]
IC50 (Human VAP-1): < 3 µM
IC50 (Human DAO): < 3 µM
IC50 (Human MAO-B): > 10 µM
IC50 (Human MAO-A): > 10 µM

SMILES: NC/C(=C\F)Cn1ncc(-c2ccc(O)cc2)n1 [Compound 57, (E)-4-(2-(2-(aminomethyl)-3-fluoroalkyl)-2H-1,2,3-triazol-4-yl)phenol hydrochloride]
IC50 (Human VAP-1): < 3 µM
IC50 (Human DAO): < 3 µM
IC50 (Human MAO-B): 3 to 10 µM
IC50 (Human MAO-A): < 3 µM

SMILES: NC/C(=C/F)COc1cccc2c1OCO2 [Compound 16, (Z)-2-((benzo[d][1,3]dioxol-4-yloxy)methyl)-3-fluoroprop-2-en-1-amine hydrochloride]
IC50 (Human VAP-1): < 3 µM
IC50 (Human DAO): < 3 µM
IC50 (Human MAO-B): < 3 µM
IC50 (Human MAO-A): < 3 µM

SMILES: NC/C(=C\F)CNCc1ccccc1 [Compound 26, (E)-N^1-benzyl-2-(fluoromethylene)propane-1,3-diamine]
IC50 (Human VAP-1): < 3 µM
IC50 (Human DAO): > 10 µM
IC50 (Human MAO-B): < 3 µM
IC50 (Human MAO-A): 3 to 10 µM

SMILES: NC/C(=C\F)COc1cccc2scnc12 [Compound 8, (E)-2-((benzo[d]thiazol-4-yloxy)methyl)-3-fluoroprop-2-en-1-amine hydrochloride]
IC50 (Human VAP-1): < 3 µM
IC50 (Human DAO): < 3 µM
IC50 (Human MAO-B): < 3 µM
IC50 (Human MAO-A): < 3 µM
